These results are taken from ChEMBL document CHEMBL5143732 (J Med Chem, 2022).

Converted amounts (≈) assume the structure as drawn.

One data set has as its system Candida parapsilosis. Kind of data set: Antifungal activity against Candida parapsilosis assessed as inhibition of fungal growth measured after 48 hrs by CLSI based agar dilution method. The data set is classed as functional. To be noted: Lodderomyces parapsilosis.
The test system of data set [1] is Pichia kudriavzevii. As to the kind of experiment: Antifungal activity against Candida krusei assessed as inhibition of fungal growth measured after 48 hrs by CLSI based agar dilution method. The data set is classed as functional. (In general: In agar dilution the substance is mixed into plates at graded concentrations.)
Data set [2] is described as follows: Hemolytic activity in human RBC measured after 1 hr. The data set is classed as toxicity, cell-based, Erythrocyte. As to conditions: red blood cells (erythrocytes).
A further data set has as its system Cryptococcus neoformans. As to the kind of experiment: Antifungal activity against Cryptococcus neoformans ATCC 32609 assessed as inhibition of fungal growth measured after 48 hrs by CLSI based agar dilution method. It is filed as functional.
In another data set the test system is Candida albicans. Kind of data set: Antifungal activity against Candida albicans assessed as inhibition of fungal growth measured after 48 hrs by CLSI based agar dilution method. It is filed as functional.
Data set [3] relates to Pichia kudriavzevii. As to the kind of experiment: Antifungal activity against Candida krusei ATCC 6258 assessed as inhibition of fungal growth measured after 48 hrs by CLSI based agar dilution method. The data set is classed as functional.
The next data set concerns Candida tropicalis. As to the kind of experiment: Antifungal activity against Candida tropicalis assessed as inhibition of fungal growth measured after 48 hrs by CLSI based agar dilution method. The data set is classed as functional.

`CNCC(=O)N[C@@H]1[C@H](O)[C@H](O[C@H]2/C=C/C=C/C=C/C=C/C=C/C=C/C=C/[C@H](C)[C@@H](O)[C@@H](C)[C@H](C)OC(=O)C[C@H](O)C[C@H](O)CC[C@@H](O)[C@H](O)C[C@H](O)C[C@]3(O)C[C@H](O)[C@@H](C(=O)N4CCN(CCO)CC4)[C@H](C2)O3)O[C@H](C)[C@H]1O`: the MIC in the data set on Candida parapsilosis amounted to 0.5 µg/mL (≈ 0.452 µM); in the data set with Pichia kudriavzevii [1] it was 0.25 µg/mL (≈ 0.226 µM); in the data set on Cryptococcus neoformans, 0.03 µg/mL (≈ 0.0271 µM); in the data set with Candida albicans, 0.125 µg/mL (≈ 0.113 µM); in the data set with Pichia kudriavzevii [3] it was 2 µg/mL (≈ 1.81 µM); in the data set on Candida tropicalis it was 0.5 µg/mL (≈ 0.452 µM). The HC50 at 1 h in data set [2] came out at 15.1 µM.

For the compound `COC(=O)NNC(=O)[C@H]1[C@@H]2C[C@@H](O[C@@H]3O[C@H](C)[C@@H](O)[C@H](NC(=O)CN)[C@@H]3O)/C=C/C=C/C=C/C=C/C=C/C=C/C=C/[C@H](C)[C@@H](O)[C@@H](C)[C@H](C)OC(=O)C[C@H](O)C[C@H](O)CC[C@@H](O)[C@H](O)C[C@H](O)C[C@](O)(C[C@@H]1O)O2`, the MIC was found to be 2 µg/mL (≈ 1.9 µM) in the data set on Candida parapsilosis; 0.125 µg/mL (≈ 0.119 µM) in the data set on Pichia kudriavzevii [1]; 1.12 µg/mL (≈ 1.07 µM) in the data set on Cryptococcus neoformans; 0.06 µg/mL (≈ 0.057 µM) in the data set with Candida albicans; 0.5 µg/mL (≈ 0.475 µM) in the data set with Pichia kudriavzevii [3]; 0.25 µg/mL (≈ 0.237 µM) in the data set with Candida tropicalis. Further, the HC50 at 1 h in data set [2] was 8.84 µM.

For the compound `CC(=O)NNC(=O)[C@H]1[C@@H]2C[C@@H](O[C@@H]3O[C@H](C)[C@@H](O)[C@H](NC(=O)CN)[C@@H]3O)/C=C/C=C/C=C/C=C/C=C/C=C/C=C/[C@H](C)[C@@H](O)[C@@H](C)[C@H](C)OC(=O)C[C@H](O)C[C@H](O)CC[C@@H](O)[C@H](O)C[C@H](O)C[C@](O)(C[C@@H]1O)O2`, the MIC with Candida parapsilosis was 2 µg/mL (≈ 1.93 µM); in the data set with Pichia kudriavzevii [1], 0.125 µg/mL (≈ 0.121 µM); in the data set with Cryptococcus neoformans, 0.125 µg/mL (≈ 0.121 µM); in the data set on Candida albicans it was 0.06 µg/mL (≈ 0.0578 µM); in the data set on Pichia kudriavzevii [3], 1 µg/mL (≈ 0.964 µM); with Candida tropicalis, 2 µg/mL (≈ 1.93 µM). Besides, the HC50 at 1 h in data set [2] came to 6 µM.

Take `CNCC(=O)N[C@@H]1[C@H](O)[C@H](O[C@H]2/C=C/C=C/C=C/C=C/C=C/C=C/C=C/[C@H](C)[C@@H](O)[C@@H](C)[C@H](C)OC(=O)C[C@H](O)C[C@H](O)CC[C@@H](O)[C@H](O)C[C@H](O)C[C@]3(O)C[C@H](O)[C@@H](C(=O)N(C)CCCO)[C@H](C2)O3)O[C@H](C)[C@H]1O`: the minimal inhibitory concentration (MIC) came to 4 µg/mL (≈ 3.75 µM) with Candida parapsilosis; 0.5 µg/mL (≈ 0.469 µM) in the data set on Pichia kudriavzevii [1]; 1 µg/mL (≈ 0.938 µM) with Cryptococcus neoformans; 0.06 µg/mL (≈ 0.0563 µM) in the data set with Candida albicans; 4 µg/mL (≈ 3.75 µM) with Pichia kudriavzevii [3]; 4 µg/mL (≈ 3.75 µM) in the data set on Candida tropicalis. Further, the concentration for 50% haemolysis (HC50) at 1 h in data set [2] worked out at 9.52 µM.

For `CC(=O)NNC(=O)[C@H]1[C@@H]2C[C@@H](O[C@@H]3O[C@H](C)[C@@H](O)[C@H](N)[C@@H]3O)/C=C/C=C/C=C/C=C/C=C/C=C/C=C/[C@H](C)[C@@H](O)[C@@H](C)[C@H](C)OC(=O)C[C@H](O)C[C@H](O)CC[C@@H](O)[C@H](O)C[C@H](O)C[C@](O)(C[C@@H]1O)O2`, the MIC amounted to 1 µg/mL (≈ 1.02 µM) in the data set with Candida parapsilosis; 0.125 µg/mL (≈ 0.128 µM) with Pichia kudriavzevii [1]; 0.125 µg/mL (≈ 0.128 µM) with Cryptococcus neoformans; 0.25 µg/mL (≈ 0.255 µM) in the data set on Candida albicans; 1 µg/mL (≈ 1.02 µM) in the data set on Pichia kudriavzevii [3]; 2 µg/mL (≈ 2.04 µM) in the data set with Candida tropicalis. Moreover, the HC50 at 1 h in data set [2] is 5.61 µM.

Consider `CNCC(=O)N[C@@H]1[C@H](O)[C@H](O[C@H]2/C=C/C=C/C=C/C=C/C=C/C=C/C=C/[C@H](C)[C@@H](O)[C@@H](C)[C@H](C)OC(=O)C[C@H](O)C[C@H](O)CC[C@@H](O)[C@H](O)C[C@H](O)C[C@]3(O)C[C@H](O)[C@@H](C(=O)NCCCO)[C@H](C2)O3)O[C@H](C)[C@H]1O`, for which the MIC with Candida parapsilosis came to 0.5 µg/mL (≈ 0.475 µM); in the data set with Pichia kudriavzevii [1], 0.5 µg/mL (≈ 0.475 µM); in the data set with Cryptococcus neoformans, 0.25 µg/mL (≈ 0.238 µM); in the data set on Candida albicans it was 0.125 µg/mL (≈ 0.119 µM); in the data set on Pichia kudriavzevii [3] it was 0.25 µg/mL (≈ 0.238 µM); in the data set on Candida tropicalis, 0.5 µg/mL (≈ 0.475 µM). This compound also gave an HC50 at 1 h in data set [2] of 6.24 µM.

Consider `CNCC(=O)N[C@@H]1[C@H](O)[C@H](O[C@H]2/C=C/C=C/C=C/C=C/C=C/C=C/C=C/[C@H](C)[C@@H](O)[C@@H](C)[C@H](C)OC(=O)C[C@H](O)C[C@H](O)CC[C@@H](O)[C@H](O)C[C@H](O)C[C@]3(O)C[C@H](O)[C@@H](C(=O)N(C)CCO)[C@H](C2)O3)O[C@H](C)[C@H]1O`, for which the MIC in the data set on Candida parapsilosis was found to be 1 µg/mL (≈ 0.95 µM); in the data set with Pichia kudriavzevii [1], 1 µg/mL (≈ 0.95 µM); in the data set on Cryptococcus neoformans, 0.5 µg/mL (≈ 0.475 µM); in the data set on Candida albicans, 0.5 µg/mL (≈ 0.475 µM); in the data set on Pichia kudriavzevii [3], 2 µg/mL (≈ 1.9 µM); in the data set on Candida tropicalis, 1 µg/mL (≈ 0.95 µM). This compound had an HC50 at 1 h in data set [2] of 14.8 µM.

The MIC is the lowest concentration that inhibits growth of the organism. What is called HC50 is the concentration giving 50% haemolysis. Low readings indicate more damage to red cells, high ones less damage to red cells.
